In US7906520B2, “Methods for treating pain” (The General Hospital Corporation, priority 2003, dated 2011):

What was measured:
[1] = test system: GTP cyclohydrolase I; conditions: cited from earlier work; for potency as GTP cyclohydrolase I inhibitor relative to oxidized pterins: more potent than oxidized pterins; for Ki: read-out: Ki, noncompetitive inhibitor of GTP cyclohydrolase I
[2] = test system: SNI model; test: SNI model, L-NAME versus DAHP; format: in vivo
Method: In this figure, closed circles represent nNOS knockout mice with DAHP; open circles, nNOS knock out mice with vehicle; closed triangles, wild type mice with DAHP; and open triangles, wild type mice with vehicle. […] In this figure, closed triangles represent L-NAME administration; open circles, L-NAME+DAHP administration; closed circles, DAHP administration; and open triangles, vehicle administration. L-NAME was administered at 25 mg/kg, i.p., single dose, and DAHP was administered at 120 mg/kg, i.p., single dose. The antinociceptive efficacy of this high L-NAME dose is weaker (about 50%) than that of a moderate dose of DAHP.

[3] = test system: sepiapterin reductase; conditions: cited from earlier work
[4] = test system: CFA-induced paw inflammation; test: CFA model of inflammatory pain: Hargreaves test and paw weight; format: in vivo, rat; conditions: NAS 50 mg/kg i.p.
Method: FIGS. 11A-11E are a series of graphs showing the effect of DHAP on thermal hyperalgesia in the CFA model which is a model for inflammatory pain. […] On the left end of the graph, two doses of DAHP (180 mg/kg i.p.) were injected, the first 30 minutes before injection of CFA into the hindpaw, the second 4 hours after CFA (indicated with arrows D1 and D2). On the right, a single dose (dotted arrow D1) of DAHP (180 mg/kg i.p.) was injected 24 h after induction of paw inflammation without any treatment during the first 24 h following CFA injection. […] In FIGS. 11C-11D, the effects of systemically administered DAHP (180 mg/kg i.p. single dose; 11C) are compared with the effects of a single intrathecal dose (1 mg/kg i.t.; 11D) which was administered via a lumbar spinal catheter. In both cases, treatment was started 24 hours after CFA injection into the hindpaw. Because of slightly different baseline levels (11C compared with 11D) effects of DAHP after i.p. and i.t. treatment are additionally presented as percentage change of paw withdrawal latency (FIG. 11E) to allow for a direct comparison of both routes of administration.
FIG. 12 is a bar graph showing the increase of the paw weight of the inflamed paw compared with the contralateral paw. Paw weight was determined 48 hours following CFA injection. The increase of the paw weight is a measure for the inflammatory paw edema and therefore allows assessment of paw inflammation.
FIGS. 15A and 15B show the effect of the sepiapterin reductase inhibitor, N-acetyl-serotonin (NAS) on thermal hyperalgesia in the CFA model. The paw withdrawal latency (PWL) to radiant heat (Hargreaves test) is a measure for the heat sensitivity. NAS treatment (single dose of 50 mg/kg i.p.) was started 24 hours after CFA injection into the hindpaw. Data are presented as percentage change of the PWL compared with the PWL of the non-inflamed contralateral paw. […] Paw weight was determined 48 hours following CFA injection. The increase of the paw weight is a measure for the inflammatory paw edema.
Hypersensitivity was induced using the CFA model of paw inflammation. In these experiments, BH4 was injected at time “zero” after measurement of baseline paw withdrawal latency.

[5] = systemically administered, low doses; cited from earlier work
[6] = test system: SNI model of neuropathic pain; test: Spared nerve injury (SNI) model of neuropathic pain, von Frey and acetone tests; format: in vivo
Method: FIGS. 8A-8D represent a series of graphs showing the effect of DAHP on nociceptive behavior in the SNI model of neuropathic pain. Figures on the left show the threshold to mechanical stimuli applied with von Frey hairs (von Frey threshold). Figures on the right show the duration of paw licking, shaking and lifting following acetone application to the paw as a measure for cold allodynia. In FIG. 8A, rats were treated with DAHP (180 mg/kg/d i.p.) for three days starting three days after surgery (early treatment). Nociceptive behavior was assessed daily before and after drug injection. In FIG. 8B, the treatment period was extended to five days (180 mg/kg/d i.p.) starting three days after surgery and pain behavior was assessed daily before and after drug injection and once every second day for an additional week after stopping the daily drug injections. In FIG. 8C, treatment with DAHP (180 mg/kg/d i.p. for 5 days) was started 17 days after surgery i.e. in the chronic phase without any treatment in the early phase. Nociceptive behavior was assessed once daily 3 h after drug injection. In FIG. 8D, animals received a continuous spinal infusion of DAHP (6 mg/kg/d) for 14 days. The infusion was started directly after surgery. Nociceptive behavior was assessed once daily.
FIGS. 16A-16D show the effects of systemic (16A) and intrathecal (16B) treatment with methotrexate (MTX) on the nociceptive behavior in the SNI model of neuropathic pain. […] In FIG. 16A MTX (0.2 mg/kg/d) was injected i.p. once daily starting 5 days after SNI surgery. Nociceptive behavior was assessed once daily three hours after drug injection. In FIG. 16B, MTX was administered as continuous intrathecal infusion (0.1 mg/kg/d for 14 days) starting right after SNI surgery. Nociceptive behavior was assessed once daily. FIGS. 16C and 16D show the body weight gain of animals during systemic (16C) and intrathecal (16D) MTX treatment. Determination of the weight gain was used to assess general well-being and potential toxic effects of MTX.
In this graph, closed triangles represent vehicle, i.p.; open triangles represent DAHP at 90 mg/kg/day, i.p.; open squares represent DAHP at 180 mg/kg/day, i.p.; and open circles represent DAHP at 270 mg/kg/day, i.p.
All procedures were performed in accordance with Massachusetts General Hospital animal care regulations. Adult male Sprague Dawley rats (200-300 g) were anesthetized with halothane. For the sciatic nerve transection (axotomy), the left sciatic nerve was exposed at the mid thigh level, ligated with 3/0 silk, and sectioned distally. The wound was sutured in two layers, and the animals were allowed to recover. For SNI the tibial and peroneal branch of the sciatic nerve were ligated and transected whereas the sural nerve was spared. For CCI, the sciatic nerve was loosely ligated with dexon 4/0 (three ligatures) and for the spinal ligation model the L5 spinal segmental nerve was ligated.

C[C@H](O)[C@H](O)[C@@H]1CNc2nc(N)[nH]c(=O)c2N1 [6S-BH4]
effectiveness relative to BH4 ([1]; feedback inhibition of GTPCH): more than one order of magnitude less effective

C[C@H](O)[C@H](O)C1=Nc2c(nc(N)[nH]c2=O)NC1 [7,8-dihydro-L-Biopterin]
potency as GTP cyclohydrolase I inhibitor relative to oxidized pterins [1]: approximately 12 times | Ki [1]: 14.4 µM

COC(=O)[C@@H](N)CCCNC(=N)N[N+](=O)[O-] [L-NAME, N^G-Nitro-L-arginine-methyl ester]
effect of L-NAME co-injection on efficacy of DAHP ([2]; L-NAME 25 mg/kg i.p. + DAHP 120 mg/kg i.p.): does not further increase the efficacy of DAHP | antinociceptive efficacy relative to a moderate dose of DAHP ([2]; L-NAME 25 mg/kg i.p. single dose, weaker than DAHP): about 50%

C[C@H](O)C(=O)C1=Nc2c(nc(N)[nH]c2=O)NC1 [L-Sepiapterin]
potency as GTP cyclohydrolase I inhibitor relative to oxidized pterins [1]: 12 times | IC50 ([1]; read-out: IC50, GTP cyclohydrolase I inhibitor): 12.7 ± 1.8 µM

O=C(CCl)NCCc1ccc(O)c(O)c1 [N-Chloroacetyldopamine]
potency as sepiapterin reductase inhibitor relative to NAS [3]: increased potency

O=C(CCl)NCCc1c[nH]c2ccc(O)cc12 [N-Chloroacetylserotonin]
potency as sepiapterin reductase inhibitor relative to NAS [3]: increased potency

COCC(=O)NCCc1c[nH]c2ccc(O)cc12 [N-Methoxyacetylserotonin]
potency as sepiapterin reductase inhibitor relative to NAS [3]: increased potency

CC(=O)NCCc1c[nH]c2ccc(O)cc12 [NAS, N-acetyl-serotonin]
CFA-induced inflammatory paw edema [4]: no effect | thermal hyperalgesia ([4]; 24 hours after CFA): reduction of thermal hyperalgesia

C[C@H](O)[C@H](O)[C@H]1CNc2nc(N)[nH]c(=O)c2N1 [Tetrahydro-L-biopterin]
Ki [1]: 15.7 µM

Nc1nc2nc[nH]c2c(=O)[nH]1 [guanine]
GTPCH inhibitory potency relative to DAHP ([1]; higher potency than DAHP): approximately 10 fold

CN(Cc1cnc2nc(N)nc(N)c2n1)c1ccc(C(=O)N[C@@H](CCC(=O)O)C(=O)O)cc1 [methotrexate]
blood brain barrier penetration [5]: does not penetrate the blood brain barrier | pain in response to mechanical and cold allodynia ([6]; MTX 0.2 mg/kg/d i.p. or 0.1 mg/kg/day continuous lumbar spinal delivery): reduction in pain | acute toxicity (body weight change over time) ([6]; MTX systemic or intrathecal): absence of detectable acute toxicity
